From patent publication US20230172925A1, “SKIN-CARE COMPOSITIONS AND USES THEREOF” (AHAVA - DEAD SEA LABORATORIES LTD., priority 2019, published 2023)

Assays:
Type in all cases: cell-based
[1] = system: MatTek EFT-400 full thickness tissues; assay: DNA microarray gene expression in skin equivalents, complex vs individual ingredients (Example 5); parameters: key to Genes up and downregulation in pathway: + = up-regulated; − = down-regulated; *non-significant down-regulation, thus, regulation is considered as non-affected (NA); settings: for Up-Regulated Genes (number): cut off of two fold change of adjusted Fold Change, 48 hours
Experimental: MatTek EFT-400 full thickness tissues were used as the model for this study. Upon arrival, the full thickness tissues were placed into 6 wells plates with 2 ml of culture media and incubated overnight at 37±2° C. and 5±1% CO2. After this overnight incubation the culture media was replaced with 5 ml of fresh media and the tissues were treated topically with the test materials prepared in distilled water as follows:
After the application of the test materials the tissues were incubated at 37±2° C. and […] for 48 hours.
At the end of the treatment period, the tissues were rinsed and transferred to a 2 ml centrifuge tube containing 700 μl of lysis buffer and homogenized. After centrifuging at 14,000×g for 10 minutes at 4° C. the supernatant from each tube was transferred to a new 1.5 ml tube and mixed with and equal volume of 64% ethanol. After mixing the solutions was transferred to glass fiber filter cartridges and the cartridges were loaded into a 1.5 ml collection tube centrifuged for 1 minute at 14,000 RPM in a Napco 2002 Microcentrifuge with a DA-6T fixed angle rotor. The flow through was discarded and any remaining mixture was loaded into the filter cartridge and the centrifugation process was repeated until all of the mixture had been processed. The filter was then washed to remove any residual cellular debris from the RNA bound to the glass fibers by subsequently applying 700 μl of wash solution 1 (1 time) and 500 μl of wash solution 2 (2 times) to the filter cartridge and centrifuging at 14,000 RPM for 1 minute to pass each wash through the cartridge. After each wash, the flow through was discarded. After the final wash one final spin was performed without wash solution to remove any residual wash solution in the filter cartridge. The RNA bound to the glass fibers within the cartridge was then eluted by applying 40 μl of TE buffer (10 mM Tris-HCl, 1 mM EDTA, preheated to 70-80° C.) to the cartridge and centrifuging the cartridge in a new collection tube at 14,000 RPM for one minute. The elution process was then repeated a second time using 20 μl of TE buffer.
First Strand cDNA Synthesis: To start the first strand synthesis, 10 μl of total RNA for each sample was added to a 600 μl PCR tube and the total volume of liquid in the tube will be adjusted to 11 μl with DEPC H2O. Next, 1 μl of T7 Oligo(dT) primer was added and the tube was incubated in a water bath at 70±2° C. for 10 minutes to denature the RNA and then placed on ice to allow the primers to anneal to the poly A ends of the mRNA. After cooling 2 μl of 10× first strand buffer, 1 μl of RNAse inhibitor and 4 μl of dNTP mix were added to each tube, and the tube was incubated at 42° C. in a hybridization oven (Labnet Problot). As soon as the tube was heated, 1 μl of Reverse Transcriptase was added and the tubes were returned to 42±2° C. for 2 hours. At the end of the two hours the tubes were briefly centrifuged to collect all of the fluid at the bottom of the tube and then placed on ice.
Two tubes were prepared for the labeling process, one for Cy3 labeling (green) and one for Cy5 labeling (red). To the Cy3 tube 2 μg of aRNA prepared from the untreated/control sample (the actual color assignment for each sample is not important, but for consistency Cy3 is normally used for the untreated sample) and enough DEPC H2O was added to bring the total volume up to 4 μl. To the Cy5 tube 2 μg of aRNA prepared from the sample treated with the test material and enough DEPC H2O was added to bring the total volume up to 4 μl. To both tubes 5 μl of ASAP labeling buffer was added along with 1 μl of the specific dye for the tube (Cy3 or Cy5). The tubes were incubated for 15 minutes at 85±2° C. At the end of the 15 minutes the tubes were placed on ice to cool them and then add 2.5 μl of ASAP stop solution was added to each tube.

[2] = system: human skin explants (epidermis); assay: Human skin organ culture with UVB stressor, viability by MTT assay; settings: SDS 10% applied only once, not irradiated, 24 hours of incubation
Experimental: (§1) Topical exposure till 48 hours in total (24 hr recovery following topical application+24 hr after exposure to UVB irradiation) with UVB radiation as stressor on human skin model
(§2) The following general procedure was used in the study:
(§3) Day 1: Topical application of 3 μl of each sample solution on the epidermis of each skin explant. Incubate for 24 hours. SDS 10% was applied only once, and was not farther irradiated with UVB.
(§4) Day 2: Skin explants were washed once with PBS and irradiated with UVB lamp at 200 mJ/cm2. After radiation it was incubated for 30 min and then topically apply each treatment (sample solution) again. Control was not irradiated under UVB light. UVB radiated control was without any treatment except radiation.
(§5) Day 3: Viability and Caspase3 activity were measured for the epidermis layer. The medium was collected for cytokines test.
FIG. 2 illustrates a flow diagram of topical exposure/treatment till 48 hours, 24 hr recovery following topical application +24 hr after exposure to UVB irradiation) with UVB radiation as stressor on human skin model experiment. In the Experiment the SDS irritation control sample was a skin explant that was topical applied with 3 μl SDS 10% solution at day 1 only.
The viability of the various skin explants was measured by the 5-dimethylthiazol-2-yl]-2,5-diphenyl tetrazolium bromide (MTT) assay.

TNFα [3] = assay: Human skin organ culture with UVB stressor, TNFα secretion in the medium; settings: SDS 10%, one treatment, not irradiated
Experimental: as §1, §2, §3, §4, §5
FIG. 4 illustrates the TNFα secretion results in the medium as observed with 2 to 4 repetition of the tests. In FIG. 4 the TNFα secretion of the irradiated sample “UVB” was selected as 100% and it equals 53±30 pg/ml.

IL-1α [4] = assay: Human skin organ culture with UVB stressor, IL-1α secretion in the medium; settings: SDS 10% applied once, incubation of 24 hours
Experimental: as §1, §2, §3, §4, §5
FIG. 5 illustrates the IL-1α secretion results in the medium as observed with 3 to 4 repetition of the tests. In FIG. 5 the IL-1α secretion of the irradiated sample “UVB” was selected as 100% and it equals 8.1±1.0 pg/ml.

[5] = system: human skin explants (epidermis); assay: Human skin organ culture without UVB stressor, topical exposure till 96 hours, viability by MTT assay; settings: no UVB; SDS 10% applied only once; after 96 hours
Experimental: (§6) Topical Exposure Till 96 Hours without External UVB Radiation as Stressor on Human Skin Model
(§7) Day 1: Topical application of 3 μl of each solution on the epidermis of each skin explant. Incubate for 24 hours. (SDS Irritation control: topical application of 3 ul SDS 10% was applied on the skin model at day 1 only. The rest of the days samples were untouched).
(§8) Day 2: Topical application of 3 μl of each solution on the epidermis of each skin explant. Incubate for 24 hours in fresh medium (medium was not collected). (UVB control: after 24 hours incubation with 3 μl H2O skin was irradiated with 200 mJ/cm2 UVB. The rest of the experiment days sample were topically applied with H2O, as control).
(§9) Day 3: Topical application of 3 μl of each solution on the epidermis of each skin explant. Incubate for 24 hours in fresh medium (medium was collected)—48 hours of total topical incubation.
(§10) Day 4: Topical application of 3 μl of each solution on the epidermis of each skin explant. Incubate for 24 hours in fresh medium (medium was collected)—72 hours of total topical incubation.
Day 5: Topical application of 3 μl of each solution on the epidermis of each skin explant. Incubate for 24 hours in fresh medium (medium was collected)—96 hours of total topical incubation. MTT assay was performed. […]
The viability of the various skin explants was measured by the MTT assay.

TNFα [6] = assay: Human skin organ culture without UVB stressor, TNFα secretion; settings: no UVB; SDS 10% applied once; after incubation of 48 hours
Experimental: as §6, §7, §8, §9, §10
(§11) Day 5: Topical application of 3 μl of each solution on the epidermis of each skin explant. Incubate for 24 hours in fresh medium (medium was collected)—96 hours of total topical incubation. MTT assay was performed.
FIG. 8 illustrates the TNFα secretion tested results. In FIG. 8 the TNFα secretion of the H2O sample was used as a control (0.35±0.05 pg/ml) for each time point.

IL-1α [7] = assay: Human skin organ culture without UVB stressor, IL-1α secretion; settings: no UVB, SDS 10% applied once
Experimental: as §6, §7, §8, §9, §10, §11
FIG. 9A illustrates the IL-1α secretion results in the medium. In FIG. 9A the IL-1α secretion of the H2O sample was used as a control (9.0±0.7 pg/ml […]) for each time point. FIG. 9B is a magnification of FIG. 9A.

[8] = KEGG_NUCLEOTIDE_EXCISION_REPAIR
[9] = KEGG_SIGNALING_PATHWAYS_REGULATING_PLURIPOTENCY_OF_STEM_CELLS
[10] = WIKI_ASSEMBLY_OF_COLLAGEN_FIBRILS_AND_OTHER_MULTIMERIC_STRUCTURES

**Q.** Which results are given for NC(=O)c1cccnc1 [Niacinamide]?
**A.** z-score ([1]; KEGG_APOPTOSIS): −0.6704; z-score ([1]; KEGG_BASE_EXCISION_REPAIR): 0.1343; Genes up and downregulation in pathway ([1]; KEGG_CELL_CYCLE): −; z-score ([1]; KEGG_CELL_CYCLE): −1.1781; z-score ([1]; KEGG_CIRCADIAN_RHYTHM_MAMMAL): 0.1529; z-score ([1]; KEGG_FATTY_ACID_BIOSYNTHESIS): −1.579; z-score ([1]; KEGG_FATTY_ACID_DEGRADATION): −0.3119; z-score ([1]; KEGG_GLYCOLYSIS_GLUCONEOGENESIS): 0.7976; z-score ([1]; KEGG_NF_KAPPA_B_SIGNALING_PATHWAY): −0.7978; Genes up and downregulation in pathway [1, 8]: −; z-score [1, 8]: −0.2743; z-score ([1]; KEGG_OXIDATIVE_PHOSPHORYLATION): 0.1959; Genes up and downregulation in pathway ([1]; KEGG_P53_SIGNALING_PATHWAY): −; z-score ([1]; KEGG_P53_SIGNALING_PATHWAY): −0.04133; z-score ([1]; KEGG_PROTEASOME): −1.4338; z-score ([1]; KEGG_RETINOL_METABOLISM): 0.7797; Genes up and downregulation in pathway [1, 9]: −; z-score [1, 9]: −1.5828; z-score ([1]; KEGG_SPHINGOLIPID_METABOLISM): −1.4272; z-score ([1]; KEGG_TH1_AND_TH2_CELL_DIFFERENTIATION): −0.6106; z-score ([1]; KEGG_TIGHT_JUNCTION): 1.7592; z-score ([1]; KEGG_TNF_SIGNALING_PATHWAY): −1.6603; z-score ([1]; KEGG_T_CELL_RECEPTOR_SIGNALING_PATHWAY): −0.515; z-score ([1]; KEGG_WNT_SIGNALING_PATHWAY): −0.8093; z-score ([1]; WIKI_ACTIVATION_OF_MATRIX_METALLOPROTEINASES): 1.5758; Genes up and downregulation in pathway [1, 10]: −; z-score [1, 10]: −0.4818; z-score ([1]; WIKI_COLLAGEN_BIOSYNTHESIS_AND_MODIFYING_ENZYMES): 1.0367; z-score ([1]; WIKI_COLLAGEN_DEGRADATION): 0.7489; z-score ([1]; WIKI_DEGRADATION_OF_THE_EXTRACELLULAR_MATRIX): 0.02517; Genes up and downregulation in pathway ([1]; WIKI_ELASTIC_FIBRE_FORMATION): −; z-score ([1]; WIKI_ELASTIC_FIBRE_FORMATION): −1.0086; z-score ([1]; WIKI_ELECTRON_TRANSPORT_CHAIN_IN_MITOCHONDRIA): −0.6757; z-score ([1]; WIKI_EXTRACELLULAR_MATRIX_ORGANIZATION): 0.2738; Genes up and downregulation in pathway ([1]; WIKI_KERATINIZATION): +; regulation of WIKI_KERATINIZATION pathway (Z-Score heatmap, in words) ([1]; WIKI_KERATINIZATION): up-regulated; z-score ([1]; WIKI_KERATINIZATION): 7.5403; z-score ([1]; WIKI_NRF2_PATHWAY): 2.1898; z-score ([1]; WIKI_RESPIRATORY_ELECTRON_TRANSPORT_ATP_SYNTHESIS): −0.7571; z-score ([1]; WIKI_SPHINGOLIPID_METABOLISM): −0.1492; Up-Regulated Genes (number) ([1]; 19254 genes evaluated): 133; Up-Regulated Genes (number) ([1]; second column of Table 6): 70

**Q.** How did the “viability (MTT) of epidermis” value [2] turn out when CCCCCCCCCCCCOS(=O)(=O)[O-].[Na+] [SDS] was run?
**A.** Its value is “caused epidermis death”.

**Q.** And the TNFα secretion (TNFα [3])?
**A.** Its TNFα secretion is “significant reduction”.

**Q.** What about the IL-1α secretion (IL-1α [4]) of the same compound?
**A.** Its IL-1α secretion is “dramatically increased”.

**Q.** And the “epidermis viability (MTT), % of the control value” [5]?
**A.** The value was 15%.

**Q.** What about the TNFα secretion (TNFα [6]) of the same compound?
**A.** Its TNFα secretion is “below the detection lever”.

**Q.** What about the “IL-1α secretion level, times of the control value” (IL-1α [7]; after 48 hours) of the same compound?
**A.** Its value is 6.5 times of the control value.

**Q.** And the “IL-1α secretion level, times of the control value” (IL-1α [7]; after 72 hours and 96 hours)?
**A.** The value was 10.6 times of the control value.
